What was measured:
Milkweed bug = experiment: 7-day residual contact activity against milkweed bug (percent kill); type: in vivo, Oncopeltus faciatus; conditions: Oncopeltus fasciatus, 168 h, treated surface aged seven days in light and air, read-out: Percent Kill MWB, 7-day residual activity
Description: (§1) The test compound was dissolved in a small amount of acetone, and the acetone solution was dispersed in water containing one drop of isooctylphenyl polyethoxyethanol to make a solution having 1250 ppm (w/w) active ingredient. Aliquots of this solution were diluted with an appropriate amount of water to provide solutions containing various concentrations of active ingredient. Test organisms and techniques were as follows: the activity against Mexican bean beetle (Epilachna varivestis Muls.) and southern armyworm (Spodoptera eridania [Cram.]) was evaluated by dipping the leaves of pinto bean plants into the test solution and infesting the leaves with the appropriate immature-form insects when the foliage had dried. The activity against the pea aphid (Acyrthosiphon pisum [Harris]) was evaluated on broad bean plants whose leaves were dipped before infestation with adult aphids. The activity against twospotted spider mites (Tetranychus urticae Koch) was evaluated on pinto bean plants whose leaves were dipped after infestation with adult mites. The activity against the milkweed bug (Oncopeltus faciatus [Dallas]) was evaluated by spraying the test solutions into glass dishes or jars containing the adult insects. Following application of the compound and infestation the tests were maintained in a holding room at 80° F. and 50% relative humidity for an exposure period of 72 hours. At the end of this time the dead and living insects or mites were counted and the percent kill was calculated. Results of these tests are summarized in Table I. Most of the compounds tested were active against all the insects.
(§2) The residual contact activity of certain of the compounds was determined on the same organisms using the techniques described above, except that in each case the treated surface was allowed to dry and was exposed to normal light and air for seven days before introduction of the mites or insects. The seven day residual activity was minimal for the mite but substantial against the remaining organisms. Again, the remarkable activity of some of these compounds against milkweed bug and Mexican bean beetle was noted.

Pea aphid = experiment: 7-day residual contact activity against pea aphid (percent kill); type: in vivo; conditions: Acyrthosiphon pisum, 168 h, treated surface aged seven days in light and air, read-out: Percent Kill PA, 7-day residual activity
Description: as §1, §2

[1] = system: pea aphid (Acyrthosiphon pisum [Harris]); experiment: Initial contact activity against pea aphid (percent kill); type: in vivo; conditions: 72 hours exposure, read-out: Percent Kill PA, initial activity
Description: as §1

[2] = system: southern armyworm (Spodoptera eridania [Cram.]); experiment: Initial contact activity against southern armyworm (percent kill); type: in vivo; conditions: 72 hours exposure, read-out: Percent Kill AW, initial activity
Description: as §1

[3] = system: Mexican bean beetle (Epilachna varivestis Muls.); experiment: Initial contact activity against Mexican bean beetle (percent kill); type: in vivo; conditions: 72 hours exposure, read-out: Percent Kill MBB, initial activity
Description: as §1

Southern armyworm = experiment: 7-day residual contact activity against southern armyworm (percent kill); type: in vivo; conditions: Spodoptera eridania, 168 h, treated surface aged seven days in light and air, read-out: Percent Kill AW, 7-day residual activity
Description: as §1, §2

Twospotted spider mite = experiment: 7-day residual contact activity against twospotted spider mite (percent kill); type: in vivo; conditions: Tetranychus urticae, 168 h, treated surface aged seven days in light and air, read-out: Percent Kill SM, 7-day residual activity
Description: as §1, §2

[4] = system: milkweed bug (Oncopeltus faciatus [Dallas]); experiment: Initial contact activity against milkweed bug (percent kill); type: in vivo; conditions: 72 hours exposure, read-out: Percent Kill MWB, initial activity
Description: as §1

[5] = system: twospotted spider mites (Tetranychus urticae Koch); experiment: Initial contact activity against twospotted spider mite (percent kill); type: in vivo; conditions: 72 hours exposure, read-out: Percent Kill SM, initial activity
Description: as §1

| SMILES | mortality at 78 ppm [1] | mortality at 312 ppm [1] | mortality at 1250 ppm [1] | mortality at 78 ppm [2] | mortality at 1250 ppm [2] | mortality at 20 ppm [3] | mortality at 78 ppm [3] | mortality at 78 ppm [4] | mortality at 312 ppm [4] | mortality at 1250 ppm [4] | mortality at 78 ppm [5] | mortality at 312 ppm [5] | mortality at 1250 ppm [5] | mortality at 312 ppm [2] | mortality at 312 ppm [3] | also measured |
| --- | --- | --- | --- | --- | --- | --- | --- | --- | --- | --- | --- | --- | --- | --- | --- | --- |
| CC1(C)C(C=CSc2ccccc2)C1C(=O)OCc1cccc(Oc2ccccc2)c1 (mixture of isomers) [Example 1, 3-phenoxybenzyl cis,trans-3-[2-(E,Z)-phenylthioethenyl]-2,2-dimethylcyclopropanecarboxylate] | 0% | 0% | 0% | 0% | 0% | 0% | 62% | 10% | 5% | 30% | 0% | 0% | 0% | – | – | activity at 78 ppm (Milkweed bug; 78 ppm): 5%; activity at 312 ppm (Milkweed bug; 312 ppm): 10%; activity at 1250 ppm (Milkweed bug; 1250 ppm): 0%; activity at 78 ppm (Pea aphid; 78 ppm): 0%; activity at 312 ppm (Pea aphid; 312 ppm): 10%; activity at 1250 ppm (Pea aphid; 1250 ppm): 30%; mortality at 20 ppm ([1]; 20 ppm): 0%; mortality at 1.2 ppm ([2]; 1.2 ppm): 0%; mortality at 5 ppm ([2]; 5 ppm): 0%; mortality at 20 ppm ([2]; 20 ppm): 0%; mortality at 1.2 ppm ([3]; 1.2 ppm): 44%; mortality at 5 ppm ([3]; 5 ppm): 28%; mortality at 1250 ppm ([3]; 1250 ppm): 100%; activity at 20 ppm (Southern armyworm; 20 ppm): 0%; activity at 78 ppm (Southern armyworm; 78 ppm): 0%; activity at 312 ppm (Southern armyworm; 312 ppm): 0%; activity at 1250 ppm (Southern armyworm; 1250 ppm): 0%; activity at 1250 ppm (Twospotted spider mite): 0%; mortality at 20 ppm ([4]; 20 ppm): 10%; mortality at 20 ppm ([5]; 20 ppm): 0% |
| CC1(C)C(C=CSc2ccc(F)cc2)C1C(=O)OCc1cccc(Oc2ccccc2)c1 (mixture of isomers) [Example 5, 3-phenoxybenzyl cis,trans-3-[2-(E,Z)-(4-fluorophenylthio)ethenyl]-2,2-dimethylcyclopropanecarboxylate] | 0% | 45% | 35% | 0% | 7% | 33% | 35% | 0% | 5% | 15% | 0% | 0% | 0% | 0% | 95% | – |
| CC1(C)C(C=CSc2ccc(F)cc2)C1C(=O)OC(C#N)c1cccc(Oc2ccccc2)c1 (mixture of isomers) [Example 6, α-cyano-3-phenoxybenzyl cis,trans-3-[2-(E,Z)-(4-fluorophenylthio)ethenyl]-2,2-dimethylcyclopropanecarboxylate] | 0% | 10% | 100% | 0% | 56% | 68% | 94% | 5% | 38% | 100% | 0% | 0% | 0% | 0% | 100% | – |
| CC1(C)C(C=C(Cl)Sc2ccccc2)C1C(=O)OC(c1cccc(Oc2ccccc2)c1)C(F)(F)F (mixture of isomers) [Example 7, α-trifluoromethyl-3-phenoxybenzyl cis,trans-3-[2-(E,Z)-chloro-2-phenylthioethenyl]-2,2-dimethylcyclopropanecarboxylate] | 94% | 100% | 100% | 0% | 0% | 90% | 100% | 5% | 32% | 100% | – | – | 62% | 0% | 100% | – |
| CC1(C)C(C=C(Cl)Sc2ccc(F)cc2)C1C(=O)OC(C#N)c1cccc(Oc2ccccc2)c1 (mixture of isomers) [Example 8, α-cyano-3-phenoxybenzyl cis,trans-3-[2-(E,Z)-chloro-2-(4-fluorophenylthio)ethenyl]-2,2-dimethylcyclopropanecarboxylate] | 46% | 94% | 93% | 40% | 90% | 100% | 100% | 75% | 100% | 100% | – | – | 100% | 80% | 100% | – |
| CC1(C)C(C=C(Cl)Sc2ccc(Cl)cc2)C1C(=O)OCc1cccc(Oc2ccccc2)c1 (mixture of isomers) [Example 9, 3-phenoxybenzyl cis,trans-3-[2-(E,Z)-chloro-2-(4-chlorophenylthio)ethenyl]-2,2-dimethylcyclopropanecarboxylate] | 71% | 100% | 100% | 0% | 20% | 100% | 100% | 0% | 70% | 90% | – | – | 0% | 0% | 100% | – |
| CC1(C)C(C=C(Br)Sc2ccccc2)C1C(=O)OCc1cccc(Oc2ccccc2)c1 (mixture of isomers) [Example 10, 3-phenoxybenzyl cis,trans-3-[2-(E,Z)-bromo-2-phenylthioethenyl]-2,2-dimethylcyclopropanecarboxylate] | 24% | 94% | 95% | 0% | 100% | 72% | 95% | 5% | 71% | 100% | – | – | 81% | 44% | 94% | – |
